How the values were obtained:
[1] = molecular target: T1, Human D2R (Homo sapiens, UniProt P14416); assay: D2R functional cAMP (HTRF) assay in CHO-D2 #S20 cells; assay type: cell-based; settings: for EC50: cAMP HTRF, CHO-D2 cells, forskolin 10 µM, mean±SEM n=3; for Emax: relative to the maximal effect of dopamine
T1 construct: expressed in transfected cells; host or cells: CHO-D2R #S20 cell line (membranes)
Protocol: KB=I C50/(1+([NECA]/EC50 NECA)).
Functional assays for the human D2R were carried out in a CHO-D2 #S20 cell line. 5,000 cells were seed ed in 30 µl of Opti-ME M (Invitrogen 11058) and 500µM IBMX (Sigma 17018) on a 96-well isoplate (PerkinElmer 6005030). The studied compounds wer e then added and incubated for 10 min at 37 °C with gentle stirring (150 rpm). Then, 10 µM […]
forskolin (Sigma 17018) was added and incubated for 5 min at 37 °C with gentle stirring (150 rpm). Reagents (#CISBIO 62AM4PEC) were added and, after incubation for 60 min at rt with gentle stirring (90 rpm) and protected from light, homogeneous time resolved fluorescence (HTRF, λEx: 320 nm; λEm: 620-665 nm) from each well was measured using a Tecan Infinite M1000 Pro. Data were normalized to the maximum effect of dopamine. EC50 and Ema x values were obtained after fitting the d ata to a four -parameter logistic equatio n using Prism V2. 1 (Graph Pad Inc, Chicago, USA) . […]

[2] = molecular target: Human A2AAR (Homo sapiens, UniProt P29274); assay: A2AAR functional assay, inhibition of NECA-elicited cAMP production in CHO-A2A cells; assay type: cell-based; design: expressed in transfected cells; settings: mean±SEM n=3
Protocol: Functional assays. For the human A2AAR, functional experiments measuring cAMP production were carried out in CHO-A2A cell line. The day before the assay, the cells were seeded on a 96-well culture plate (Falcon 353072). The cells were washed with wash buffer (Dulbecco’s modified eagle’s medium nutrient mixture F-12 ham (Sigma D8062), 25 mM Hepes; pH=7.4). Wash buffer was then replaced by incubation buffer (Dulbecco’s modified eagle’s medium nutrient mixture F-12 ham (Sigma D8062), 25 mM Hepes, 20 µM Rolipram, pH=7.4). The studied compounds wer e added and incubated at 37 °C for 15 min. After incubation, NECA (Sigma E2387) was added in several concentrations and incubated at 37 °C for 15 min. After incubation, the amount of cAMP was determined using the cAMP Biotrak Enzymeimmunoassay (EIA) System Kit (GE Healthcare RPN225). Data were adjusted to non-linear fitting by using Prism V2.1 (GraphPad Inc, Chicago USA). K B values were calculated from the IC50 values obtained for each compound by using the formula:
KB=I C50/(1+([NECA]/EC50 NECA)). […]

[3] = Blood-brain distribution in rats; assay type: in vivo; settings: male, Sprague Dawley, rat, 24 mg kg^−1 IP
Protocol: Blood-brain distribution. Measurements of blood-brain distribution in rats were performed by Admescope (Finland). The male Sprague Dawley rats (120-157 g) were housed in air-conditioned rooms (12h dark/light cycle) at 22 °C and a humidity of 55%. Animals were allowed to acclimatize to the site for at least five days prior to the study.
Compound 30 (24 mg/kg, formulated in 17% DMSO in saline) was administered intraperitoneally and blood samples were collected at 10, 30, and 50 min after dosing. Within 30 min following the sampling, the blood was centrifuged for plasma separation (room temperature; 10 min; 2700 G). The plasma samples were transferred into plastic tubes, frozen and stored at –20 °C until analysis. Brains were perfused under terminal isoflurane anaesthesia at 10, 30 and 50 min after dosing (n=6 per time point). For the perfusion, the heart of the rat was expo sed and major veins leading to the right atrium were severed. […]
Evaluation of compound 30 in rodent model of Parkinsonism. […] Two weeks after the unilateral 6-OHDA lesion, rats were injected with apomorphine (1 mg/kg, IP; Sigma) and their contralateral rotations were measured to determine the degree of nigrostriatal denervation. […] The number of rotations was calculated automatically with Noldus EthoVision XT11. […]

Human A2AAR, sequence (P29274 whole entry): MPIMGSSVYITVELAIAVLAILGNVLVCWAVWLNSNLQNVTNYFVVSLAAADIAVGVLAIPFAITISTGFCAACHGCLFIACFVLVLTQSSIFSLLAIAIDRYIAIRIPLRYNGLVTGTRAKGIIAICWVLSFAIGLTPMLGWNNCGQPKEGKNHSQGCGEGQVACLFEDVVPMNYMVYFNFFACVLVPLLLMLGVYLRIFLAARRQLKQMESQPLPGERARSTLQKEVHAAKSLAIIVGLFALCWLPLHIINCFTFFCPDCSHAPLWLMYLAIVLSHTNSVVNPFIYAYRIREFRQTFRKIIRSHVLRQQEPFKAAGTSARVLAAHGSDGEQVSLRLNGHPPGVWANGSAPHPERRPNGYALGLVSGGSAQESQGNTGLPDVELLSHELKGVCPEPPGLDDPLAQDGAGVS
T1 sequence (P14416 whole entry): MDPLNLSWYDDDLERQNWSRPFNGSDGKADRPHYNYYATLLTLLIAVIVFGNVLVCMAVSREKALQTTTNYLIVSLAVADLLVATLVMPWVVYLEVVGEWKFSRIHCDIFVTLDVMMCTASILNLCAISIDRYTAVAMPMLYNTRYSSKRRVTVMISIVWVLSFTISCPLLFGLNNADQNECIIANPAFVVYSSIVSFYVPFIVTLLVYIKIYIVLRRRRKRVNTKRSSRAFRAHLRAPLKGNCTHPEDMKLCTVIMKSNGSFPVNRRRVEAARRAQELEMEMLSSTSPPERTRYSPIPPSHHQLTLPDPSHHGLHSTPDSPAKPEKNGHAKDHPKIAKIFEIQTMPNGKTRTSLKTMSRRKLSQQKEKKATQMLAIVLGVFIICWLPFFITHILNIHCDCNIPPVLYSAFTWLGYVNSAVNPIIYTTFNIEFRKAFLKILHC

Row | EC50 [1] | Emax [1] | Kb [2] | concentration at 30 min ([3]; brain, at 30 min, read-out: total concentration in the brain) | Kp at 0.5 h ([3]; brain/plasma, peak after 30 min, mean±SD, read-out: brain-to-plasma ratio) | Structure (SMILES)
1 | 990 ± 380 nM | 94 ± 3% | 3600 ± 2000 nM |  |  | CCCN(CCCCC(=O)Nc1nc2c(OC)cccc2s1)C1Cc2ccccc2C1 [Compound 26]
2 | 180 ± 40 nM | 77 ± 5% | 720 ± 250 nM | ~3000 nM | 0.79 ± 0.13 | CCCN(CCCCC(=O)Nc1nc2c(OC)ccc(OC)c2s1)C1Cc2ccccc2C1 [Compound 30]
3 | 180 ± 30 nM | 89 ± 4% | 510 ± 240 nM |  |  | CCCN(CCCCC(=O)Nc1nc2c(Br)cccc2s1)C1Cc2ccccc2C1 [Compound 27]
4 | 2500 ± 900 nM | 119 ± 6% |  |  |  | CCN(CCCCC(=O)Nc1nc2c(Br)cccc2s1)C1Cc2ccccc2C1 [Compound 22]

From publication PMC8456950, “Structure‐Guided Design of G‐Protein‐Coupled Receptor Polypharmacology” (Angewandte Chemie (International Ed. in English), 2021)
